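48-hour exposure; five concentrations; linearly interpolated endpoints. TGI denotes the concentration required for complete inhibition of growth.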

Test systems include HCT-15 colon; ACHN renal; TK-10 renal; SR leukemia; MCF7 breast; UACC-257 melanoma; RXF 393 renal; LOX IMVI melanoma; MDA-N; CCRF-CEM leukemia; HT29 colon; OVCAR-3 ovarian; NCI-H522 lung; SK-MEL-2 melanoma; MDA-MB-231 breast; 786-0 renal; HS 578T breast; DU-145 prostate; T-47D breast; A498 renal.
Holding throughout (test): NCI anticancer screen, dose series, 48 h

`CCOC(=O)C(CCN1CCC2(CC1)C(=O)N(C)CN2c1ccccc1)C(=O)OCC`: the TGI with HCT-15 colon, in the experiment with ACHN renal, with TK-10 renal, with SR leukemia, with MCF7 breast and with UACC-257 melanoma was greater than 100 µM in each case. For the same molecule, the TGI in the experiment with RXF 393 renal, with LOX IMVI melanoma, in the experiment with MDA-N, in the experiment on CCRF-CEM leukemia, in the experiment with HT29 colon and in the experiment on OVCAR-3 ovarian was greater than 100 µM in each case. Moreover, the TGI with NCI-H522 lung, in the experiment with SK-MEL-2 melanoma, with MDA-MB-231 breast, in the experiment on 786-0 renal, with HS 578T breast and in the experiment with DU-145 prostate was greater than 100 µM in each case. The TGI in the experiment on T-47D breast and in the experiment on A498 renal was greater than 100 µM in each case.
Consider `CCOC(=O)/C=C(\C(=O)OCC)n1ccc(=O)n(Cc2cn(CCCCOC(C)=O)nn2)c1=O`, for which the TGI is 25.3 µM in the experiment with HCT-15 colon; 11.4 µM with ACHN renal; 13.6 µM in the experiment on TK-10 renal; greater than 36 µM with SR leukemia; 23.8 µM in the experiment on MCF7 breast; 32.9 µM in the experiment on UACC-257 melanoma. For the same molecule, the TGI was 47.4 µM in the experiment with RXF 393 renal; 48.1 µM in the experiment on LOX IMVI melanoma; 42.6 µM with MDA-N; 4.59 µM with CCRF-CEM leukemia; 21.7 µM in the experiment with HT29 colon; 29.2 µM in the experiment on OVCAR-3 ovarian. Also, the TGI is 4.03 µM in the experiment on NCI-H522 lung; 37 µM in the experiment with SK-MEL-2 melanoma; 39.1 µM in the experiment with MDA-MB-231 breast; greater than 51.1 µM in the experiment on 786-0 renal; 63.1 µM in the experiment with HS 578T breast; 45.4 µM with DU-145 prostate. For the same molecule, the TGI in the experiment on T-47D breast was greater than 41 µM; with A498 renal, 32 µM.
With `CC1OC(OC2C(OC(=O)[C@]34CCC(C)(C)C[C@H]3C3=CC[C@@H]5[C@@]6(C)CC[C@H](OC7OC(CO)C(O)C(O)C7OC7OC(CO)C(O)C(O)C7O)C(C)(C)[C@@H]6CC[C@@]5(C)[C@]3(C)CC4)OCC(O)C2O)C(O)C(OC2OCC(O)C(O)C2O)C1OC1OCC(O)C(OC2OCC(O)C(O)C2O)C1O` (stereo not given in full), the TGI in the experiment with HCT-15 colon is greater than 79.4 µM; with ACHN renal, 25.9 µM; in the experiment on TK-10 renal, 29.8 µM; in the experiment on SR leukemia, 16.2 µM; in the experiment on MCF7 breast, 58.3 µM; with UACC-257 melanoma, 13.9 µM. In addition, the TGI is 55.5 µM in the experiment on RXF 393 renal; greater than 74.6 µM in the experiment on LOX IMVI melanoma; 5.77 µM in the experiment with MDA-N; greater than 100 µM in the experiment on CCRF-CEM leukemia; 14.2 µM in the experiment on HT29 colon; greater than 100 µM in the experiment with OVCAR-3 ovarian. The TGI in the experiment with NCI-H522 lung is 9.56 µM; with SK-MEL-2 melanoma, 24.1 µM; in the experiment on MDA-MB-231 breast, 26.9 µM; in the experiment with 786-0 renal, 62.6 µM; with HS 578T breast, 50.9 µM; in the experiment on DU-145 prostate, 38.3 µM. Further, the results for the TGI in the experiment on T-47D breast and in the experiment on A498 renal were 51.8 µM and 5.11 µM, respectively.
Take `COc1ccc(-c2cc3ccccc3oc2=O)cc1OC`: the TGI in the experiment with HCT-15 colon, in the experiment on ACHN renal, in the experiment with TK-10 renal, in the experiment with SR leukemia, in the experiment on MCF7 breast and in the experiment on UACC-257 melanoma was greater than 100 µM each time. Besides, the TGI in the experiment with RXF 393 renal, in the experiment on LOX IMVI melanoma, with MDA-N, in the experiment on CCRF-CEM leukemia, in the experiment with HT29 colon and in the experiment with OVCAR-3 ovarian was greater than 100 µM throughout. The TGI in the experiment on NCI-H522 lung, with SK-MEL-2 melanoma, in the experiment on MDA-MB-231 breast, in the experiment on 786-0 renal, in the experiment on HS 578T breast and with DU-145 prostate was greater than 100 µM each time. For the same molecule, the TGI with T-47D breast and with A498 renal was greater than 100 µM each time.
For `CC(=O)OCC1OC(n2c(C)cc(C)c(C#N)c2=S)C(OC(C)=O)C(OC(C)=O)C1OC(C)=O` (stereo not given), the TGI with HCT-15 colon, with ACHN renal, in the experiment with TK-10 renal, with SR leukemia, in the experiment on MCF7 breast and in the experiment on UACC-257 melanoma was greater than 100 µM in each case. Further, the TGI in the experiment with RXF 393 renal, in the experiment on LOX IMVI melanoma, in the experiment with MDA-N, with CCRF-CEM leukemia, with HT29 colon and with OVCAR-3 ovarian was greater than 100 µM in each case. For the same molecule, the TGI with NCI-H522 lung, with SK-MEL-2 melanoma, with MDA-MB-231 breast, in the experiment with 786-0 renal, with HS 578T breast and in the experiment with DU-145 prostate was greater than 100 µM throughout. Further, the TGI in the experiment with T-47D breast and with A498 renal was greater than 100 µM throughout.
`O=c1nc(N2CCNCC2)oc2cc(Cl)oc(=O)c12`: the TGI in the experiment with HCT-15 colon came out at 15 µM; with ACHN renal, 23.5 µM; in the experiment on TK-10 renal, 23.9 µM; with SR leukemia, 4.41 µM; in the experiment on MCF7 breast, 17.8 µM; with UACC-257 melanoma, 27.7 µM. Further, the TGI with RXF 393 renal turned out to be 24.8 µM; with LOX IMVI melanoma, 5.89 µM; in the experiment on MDA-N, 9.06 µM; in the experiment with CCRF-CEM leukemia, 47.8 µM; in the experiment with HT29 colon, 12.9 µM; in the experiment on OVCAR-3 ovarian, 15.2 µM. The TGI came out at 5.9 µM in the experiment on NCI-H522 lung; 29.1 µM in the experiment on SK-MEL-2 melanoma; 35.7 µM in the experiment with MDA-MB-231 breast; 8.66 µM in the experiment on 786-0 renal; 5.9 µM in the experiment on HS 578T breast; 21.8 µM in the experiment on DU-145 prostate. Moreover, the results for the TGI in the experiment on T-47D breast and in the experiment with A498 renal were greater than 21.7 µM and 37.9 µM, respectively.
`CC(Oc1ccc(Cl)cc1Cl)C(=O)NN1C(=O)CSC1c1ccccc1` (stereo not given): the TGI in the experiment with HCT-15 colon is greater than 100 µM; in the experiment on ACHN renal it was greater than 100 µM; in the experiment on TK-10 renal, greater than 100 µM; with SR leukemia, 19.2 µM; in the experiment on MCF7 breast, greater than 100 µM; with UACC-257 melanoma, greater than 100 µM. For the same molecule, the TGI with RXF 393 renal, with LOX IMVI melanoma, in the experiment with MDA-N, in the experiment with CCRF-CEM leukemia, with HT29 colon and in the experiment on OVCAR-3 ovarian was greater than 100 µM throughout. Further, the TGI in the experiment with NCI-H522 lung, with SK-MEL-2 melanoma, in the experiment on MDA-MB-231 breast, in the experiment with 786-0 renal, in the experiment on HS 578T breast and in the experiment with DU-145 prostate was greater than 100 µM in each case. In addition, the TGI in the experiment on T-47D breast and in the experiment on A498 renal was greater than 100 µM throughout.

(Values after PubChem BioAssay (NCI).)
